{
  "source": "patent US10189842B2",
  "about": "(Agency for Science, Technology and Research, priority 2013, dated 2019)",
  "data": [
    {"test_system": "HEK293-STF3A cells", "experiment": "STF3A assay (luciferase reporter)", "assay_type": "cell-based, Human", "details": "Homo sapiens, 24 h, 1 day of treatment", "how_it_was_run": "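HEK293 cells carrying the STF reporter and expressing Wnt3A, seeded 2×10^4 per well overnight, then treated 1 day with compound at final 50 μM to 1.5 nM. Luciferase activity read by luminescence after Steady-Glo reagent, 10 min at room temperature.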", "units": {"IC50": "µM"}, "values": [
      {"smiles": "Cc1cc2n(n1)CCCN2C(=O)CCC(=O)Nc1ccc(-c2cnco2)cc1", "note": "[Compound 24, 4-(2-methyl-6,7-dihydropyrazolo[1,5-a]pyrimidin-4(5H)-yl)-N-(4-(oxazol-5-yl)phenyl)-4-oxobutanamide]", "IC50": "< 5"},
      {"smiles": "Cc1cc2n(n1)CCCN2C(=O)CCC(=O)Nc1cc(-c2ccccc2C)no1", "note": "[Compound 12, 4-(2-methyl-6,7-dihydropyrazolo[1,5-a]pyrimidin-4(5H)-yl)-4-oxo-N-(3-(o-tolyl)isoxazol-5-yl)butanamide]", "IC50": "< 0.1"},
      {"smiles": "Cc1cc2n(n1)CC(C)CN2C(=O)CCC(=O)Nc1ccc(-c2cncc(F)c2)nc1", "note": "(centres unmarked) [Compound 162, 4-(2,6-dimethyl-6,7-dihydropyrazolo[1,5-a]pyrimidin-4(5H)-yl)-N-(5′-fluoro-[2,3′-bipyridin]-5-yl)-4-oxobutanamide]", "IC50": "< 0.1"},
      {"smiles": "Cc1cc2n(n1)CCCN2C(=O)CCC(=O)Nc1ccc(-c2ccccc2)nn1", "note": "[Compound 45, 4-(2-methyl-6,7-dihydropyrazolo[1,5-a]pyrimidin-4(5H)-yl)-4-oxo-N-(6-phenylpyridazin-3-yl)butanamide]", "IC50": "< 0.1"},
      {"smiles": "Cc1cc2n(n1)CCCN2C(=O)CCC(=O)Nc1ccc(-c2ccc(Cl)cc2)nn1", "note": "[Compound 100, N-[6-(4-chlorophenyl)pyridazin-3-yl]-4-{2-methyl-5H,6H,7H-pyrazolo[1,5-a]pyrimidin-4-yl}-4-oxobutanamide]", "IC50": "< 0.1"},
      {"smiles": "Cc1cc2n(n1)CCCN2C(=O)CCC(=O)Nc1ccc(-c2cccc(F)c2)cn1", "note": "[Compound 89, N-(5-(3-fluorophenyl)pyridin-2-yl)-4-(2-methyl-6,7-dihydropyrazolo[1,5-a]pyrimidin-4(5H)-yl)-4-oxobutanamide]", "IC50": "< 0.1"},
      {"smiles": "Cc1cc2n(n1)CCCN2C(=O)CCC(=O)Nc1cc(-c2ccccc2Cl)no1", "note": "[Compound 6, N-(3-(2-chlorophenyl)isoxazol-5-yl)-4-(2-methyl-6,7-dihydropyrazolo[1,5-a]pyrimidin-4(5H)-yl)-4-oxobutanamide]", "IC50": "> 10"},
      {"smiles": "Cc1cc2n(n1)CCCN2C(=O)CCC(=O)Nc1cnc(-c2cccnc2)cn1", "note": "[Compound 52, 4-(2-methyl-6,7-dihydropyrazolo[1,5-a]pyrimidin-4(5H)-yl)-4-oxo-N-(5-(pyridin-3-yl)pyrazin-2-yl)butanamide]", "IC50": "< 0.1"},
      {"smiles": "Cc1cc2n(n1)CCCN2C(=O)CCC(=O)Nc1ccc(-c2cncc(F)c2)nc1", "note": "[Compound 109, N-(5′-fluoro-[2,3′-bipyridin]-5-yl)-4-(2-methyl-6,7-dihydropyrazolo[1,5-a]pyrimidin-4(5H)-yl)-4-oxobutanamide]", "IC50": "< 0.1"},
      {"smiles": "Cc1cc2n(n1)CCCN2C(=O)CCC(=O)Nc1ccc(C(C)(C)C)cc1", "note": "[Compound 30, N-(4-(tert-butyl)phenyl)-4-(2-methyl-6,7-dihydropyrazolo[1,5-a]pyrimidin-4(5H)-yl)-4-oxobutanamide]", "IC50": "> 10"},
      {"smiles": "Cc1cc2n(n1)CCCN2C(=O)CCC(=O)Nc1ccc(-c2cncnc2)cn1", "note": "[Compound 153, 4-(2-methyl-6,7-dihydropyrazolo[1,5-a]pyrimidin-4(5H)-yl)-4-oxo-N-(5-(pyrimidin-5-yl)pyridin-2-yl)butanamide]", "IC50": "< 0.1"},
      {"smiles": "COc1ccccc1-c1ccc(NC(=O)CCC(=O)N2CCCn3nc(C)cc32)cc1", "note": "[Compound 61, N-(2′-methoxy-[1,1′-biphenyl]-4-yl)-4-(2-methyl-6,7-dihydropyrazolo[1,5-a]pyrimidin-4(5H)-yl)-4-oxobutanamide]", "IC50": "> 10"},
      {"smiles": "Cc1cc2n(n1)CCCN2C(=O)CCC(=O)Nc1ccc(-c2ccncn2)cc1", "note": "[Compound 38, 4-(2-methyl-6,7-dihydropyrazolo[1,5-a]pyrimidin-4(5H)-yl)-4-oxo-N-(4-(pyrimidin-4-yl)phenyl)butanamide]", "IC50": "> 10"},
      {"smiles": "Cc1cc2n(n1)CCCN2C(=O)CCC(=O)Nc1cc(-c2ccccc2)no1", "note": "[Compound 2, 4-(2-methyl-6,7-dihydropyrazolo[1,5-a]pyrimidin-4(5H)-yl)-4-oxo-N-(3-phenylisoxazol-5-yl)butanamide]", "IC50": "< 1"},
      {"smiles": "Cc1cccc(-c2ccc(NC(=O)CCC(=O)N3CCCn4nc(C)cc43)nn2)c1", "note": "[Compound 99, 4-(2-methyl-6,7-dihydropyrazolo[1,5-a]pyrimidin-4(5H)-yl)-4-oxo-N-(6-(m-tolyl)pyridazin-3-yl)butanamide]", "IC50": "< 0.1"},
      {"smiles": "Cc1cc2n(n1)C[C@H](C)CN2C(=O)CCC(=O)Nc1ccc(-c2cccnc2)cn1", "note": "[Compound 170, N-(3,3′-bipyridin-6-yl)-4-(2,6-dimethyl-6,7-dihydropyrazolo[1,5-a]pyrimidin-4(5H)-yl)-4-oxobutanamide]", "IC50": "< 0.1"},
      {"smiles": "Cc1cc2n(n1)CCCN2C(=O)CCC(=O)Nc1cnc(-c2ccccc2)cn1", "note": "[Compound 47, 4-(2-methyl-6,7-dihydropyrazolo[1,5-a]pyrimidin-4(5H)-yl)-4-oxo-N-(5-phenylpyrazin-2-yl)butanamide]", "IC50": "< 0.1"},
      {"smiles": "Cc1cc2n(n1)CCCN2C(=O)CCC(=O)Nc1ncc(-c2ccccc2)cc1C", "note": "[Compound 91, N-(3-methyl-5-phenylpyridin-2-yl)-4-(2-methyl-6,7-dihydropyrazolo[1,5-a]pyrimidin-4(5H)-yl)-4-oxobutanamide]", "IC50": "< 5"},
      {"smiles": "Cc1cc2n(n1)CCCN2C(=O)CCC(=O)Nc1ccc(-c2ccc(F)cc2)nn1", "note": "[Compound 101, N-(6-(4-fluorophenyl)pyridazin-3-yl)-4-(2-methyl-6,7-dihydropyrazolo[1,5-a]pyrimidin-4(5H)-yl)-4-oxobutanamide]", "IC50": "< 0.1"},
      {"smiles": "Cc1cc2n(n1)CCCN2C(=O)CCC(=O)Nc1cc(-c2ccc(N)cc2)no1", "note": "[Compound 15, N-[3-(4-aminophenyl)-1,2-oxazol-5-yl]-4-{2-methyl-5H,6H,7H-pyrazolo[1,5-a]pyrimidin-4-yl}-4-oxobutanamide]", "IC50": "> 10"},
      {"smiles": "Cc1cc2n(n1)CCCN2C(=O)CCC(=O)Nc1cc(-c2ccc(Cl)c(Cl)c2)no1", "note": "[Compound 7, N-(3-(3,4-dichlorophenyl)isoxazol-5-yl)-4-(2-methyl-6,7-dihydropyrazolo[1,5-a]pyrimidin-4(5H)-yl)-4-oxobutanamide]", "IC50": "> 10"},
      {"smiles": "Cc1cc2n(n1)CCCN2C(=O)CCC(=O)Nc1ccc(-c2cccc(F)c2)nn1", "note": "[Compound 98, N-(6-(3-fluorophenyl)pyridazin-3-yl)-4-(2-methyl-6,7-dihydropyrazolo[1,5-a]pyrimidin-4(5H)-yl)-4-oxobutanamide]", "IC50": "< 0.1"},
      {"smiles": "Cc1cc2n(n1)CCCN2C(=O)CCC(=O)Nc1cc(C)c(-c2ccccc2)cn1", "note": "[Compound 92, N-(4-methyl-5-phenylpyridin-2-yl)-4-(2-methyl-6,7-dihydropyrazolo[1,5-a]pyrimidin-4(5H)-yl)-4-oxobutanamide]", "IC50": "< 1"},
      {"smiles": "Cc1cc2n(n1)CC(C)CN2C(=O)CCC(=O)Nc1ccc(-c2cccnc2)nc1", "note": "(centres unmarked) [Compound 140, N-(2,3′-bipyridin-5-yl)-4-(2,6-dimethyl-6,7-dihydropyrazolo[1,5-a]pyrimidin-4(5H)-yl)-4-oxobutanamide]", "IC50": "< 0.1"},
      {"smiles": "Cc1cc2n(n1)CCCN2C(=O)CCC(=O)Nc1ccc(-c2ccccc2F)cc1", "note": "[Compound 64, N-(2′-fluoro-[1,1′-biphenyl]-4-yl)-4-(2-methyl-6,7-dihydropyrazolo[1,5-a]pyrimidin-4(5H)-yl)-4-oxobutanamide]", "IC50": "< 0.1"},
      {"smiles": "Cc1cc2n(n1)CCCN2C(=O)CC(C)C(=O)Nc1cc(-c2cccc(Cl)c2)no1", "note": "(centres unmarked) [Compound 159, N-(3-(3-chlorophenyl)isoxazol-5-yl)-2-methyl-4-(2-methyl-6,7-dihydropyrazolo[1,5-a]pyrimidin-4(5H)-yl)-4-oxobutanamide]", "IC50": "< 5"}
    ]}
  ]
}
